From patent US20260001914A1, “MACROCYCLIC PEPTIDES TARGETING KRAS” (Merck Sharp & Dohme LLC, priority 2022, published 2026) come the findings set out here.

*1 amine or outer side, *2 acyl side, *3 side chain or, on linkers, in order; H or OH if unused. Where a SMILES comes first, the peptide text is derived from it. [ ]: non-standard residue; d: D form. X55 = O=C([C@H](Cc1coc(-c2ccccc2)n1)N[*:1])[*:2]; X77 = O=C([C@H](Cc1cnn(C2CCOCC2)c1)N[*:1])[*:2]; Ala(pyrimidin-5-yl) = N[C@@H](Cc1cncnc1)C(=O)O; X6 = O=C([C@H](Cc1cnn(C2COC2)c1)N[*:1])[*:2]; X51 = COc1cc(C[C@H](N[*:1])C(=O)[*:2])ncn1; Phe(3-F) = N[C@@H](Cc1cccc(F)c1)C(=O)O; Phe(2-F) = N[C@@H](Cc1ccccc1F)C(=O)O; Abu(4,4-F2) = N[C@@H](CC(F)F)C(=O)O; NMe3Pal = CN[C@@H](Cc1cccnc1)C(=O)O; X1 = O=C(C12CC(CN[*:1])(C1)C2)[*:2]; Ala(cPr) = N[C@@H](CC1CC1)C(=O)O; NMeF = CN[C@@H](Cc1ccccc1)C(=O)O; PhLac = O=C(O)[C@@H](O)Cc1ccccc1; Cba = N[C@@H](CC1CCC1)C(=O)O; hLeu = CC(C)CC[C@H](N)C(=O)O; NMeA = CN[C@@H](C)C(=O)O; Nle = CCCC[C@H](N)C(=O)O

Sequence of KRAS-G12D protein (P01116 1-188 isoform P01116-2 G12D): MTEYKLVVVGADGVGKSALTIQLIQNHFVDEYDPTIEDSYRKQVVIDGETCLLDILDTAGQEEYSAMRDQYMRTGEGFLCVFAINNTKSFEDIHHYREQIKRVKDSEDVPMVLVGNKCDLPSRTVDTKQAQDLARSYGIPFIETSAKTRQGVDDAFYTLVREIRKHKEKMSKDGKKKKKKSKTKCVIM

This experiment concerns the target KRAS-G12D protein (Homo sapiens, UniProt P01116, G12D). Kind of experiment: SOS-mediated nucleotide exchange assay (BODIPY-GDP / Tb-streptavidin TR-FRET). It counts as biochemical.
`CC(C)CC[C@@H]1NC(=O)[C@H](Cc2cnn(C3COC3)c2)NC(=O)[C@H](CC2CC2)NC(=O)[C@H](Cc2cncnc2)NC(=O)[C@H](C)N(C)C(=O)[C@H](Cc2ccccc2)OC(=O)C23CC(CNC(=O)[C@H](Cc4ccccc4)N(C)C1=O)(C2)C3` [compound 300, cyclo(FLac-NMeA-PyrimAla-cPrA-AlaPyz1Ox-hL-NMeF-amBCP)] (cyclo([Ala(cPr)][X6][hLeu][NMeF][X1][PhLac][NMeA][Ala(pyrimidin-5-yl)])) displayed an EC50 of 254 nM. For `CC(C)CC[C@@H]1NC(=O)[C@H](Cc2ccccc2F)NC(=O)[C@H](CC2CC2)NC(=O)[C@H](Cc2cnn(C3COC3)c2)NC(=O)[C@H](C)N(C)C(=O)[C@H](Cc2ccccc2)OC(=O)C23CC(CNC(=O)[C@H](Cc4cccnc4)N(C)C1=O)(C2)C3` [compound 301, cyclo(FLac-NMeA-AlaPyz1Ox-cPrA-Phe2F-hL-NMe3Pal-amBCP)] (cyclo([Ala(cPr)][Phe(2-F)][hLeu][NMe3Pal][X1][PhLac][NMeA][X6])) the value was 2.17 nM.

Turning to `CC(C)CC[C@@H]1NC(=O)[C@H](Cc2cccc(F)c2)NC(=O)[C@H](CC2CCC2)NC(=O)[C@H](Cc2cncnc2)NC(=O)[C@H](C)N(C)C(=O)[C@H](Cc2ccccc2)OC(=O)C23CC(CNC(=O)[C@H](Cc4ccccc4)N(C)C1=O)(C2)C3` [compound 303, cyclo(FLac-NMeA-PyrimAla-cBuA-Phe3F-hL-NMeF-amBCP)] (cyclo([Cba][Phe(3-F)][hLeu][NMeF][X1][PhLac][NMeA][Ala(pyrimidin-5-yl)])), the EC50 is 60.9 nM. Regarding `CC(C)CC[C@@H]1NC(=O)[C@H](Cc2ccccc2F)NC(=O)[C@H](CC(F)F)NC(=O)[C@H](Cc2cncnc2)NC(=O)[C@H](C)N(C)C(=O)[C@H](Cc2ccccc2)OC(=O)C23CC(CNC(=O)[C@H](Cc4ccccc4)N(C)C1=O)(C2)C3` [compound 304, cyclo(FLac-NMeA-PyrimAla-AbuF2-Phe2F-hL-NMeF-amBCP)] (cyclo([NMeA][Ala(pyrimidin-5-yl)][Abu(4,4-F2)][Phe(2-F)][hLeu][NMeF][X1][PhLac])), the 50% effective concentration (EC50) was determined as 17.2 nM. For `CCCC[C@@H]1NC(=O)[C@H](Cc2ccccc2)NC(=O)[C@H](C)N(C)C(=O)[C@H](Cc2ccccc2)OC(=O)C23CC(CNC(=O)[C@H](Cc4ccccc4)N(C)C(=O)[C@H](CCCC)NC(=O)[C@H](Cc4ccccc4F)NC1=O)(C2)C3` [compound 305, cyclo(FLac-NMeA-F-Nle-Phe2F-Nle-NMeF-amBCP)] (cyclo(F[Nle][Phe(2-F)][Nle][NMeF][X1][PhLac][NMeA])) the value was 1790 nM. Compound `CCCC[C@@H]1NC(=O)[C@H](Cc2cc(OC)ncn2)NC(=O)[C@H](C)N(C)C(=O)[C@H](Cc2ccccc2)OC(=O)C23CC(CNC(=O)[C@H](Cc4ccccc4)N(C)C(=O)[C@H](CCCC)NC(=O)[C@H](Cc4ccccc4F)NC1=O)(C2)C3` [compound 306, cyclo(FLac-NMeA-Ala6Pyrim4OMe-Nle-Phe2F-Nle-NMeF-amBCP)] (cyclo([NMeA][X51][Nle][Phe(2-F)][Nle][NMeF][X1][PhLac])) gave a half-maximal effective concentration (EC50) of 7000 nM. The compound `CCCC[C@@H]1NC(=O)[C@H](Cc2coc(-c3ccccc3)n2)NC(=O)[C@H](C)N(C)C(=O)[C@H](Cc2ccccc2)OC(=O)C23CC(CNC(=O)[C@H](Cc4ccccc4)N(C)C(=O)[C@H](CCCC)NC(=O)[C@H](Cc4ccccc4F)NC1=O)(C2)C3` [compound 307, cyclo(FLac-NMcA-AlaOxz2Ph-Nle-Phe2F-Nle-NMeF-amBCP)] (cyclo([NMeA][X55][Nle][Phe(2-F)][Nle][NMeF][X1][PhLac])) registered a concentration giving a half-maximal response (EC50) of 155 nM. The figure for `CCCC[C@@H]1NC(=O)[C@H](Cc2cnn(C3CCOCC3)c2)NC(=O)[C@H](C)N(C)C(=O)[C@H](Cc2ccccc2)OC(=O)C23CC(CNC(=O)[C@H](Cc4ccccc4)N(C)C(=O)[C@H](CCCC)NC(=O)[C@H](Cc4ccccc4F)NC1=O)(C2)C3` [compound 308, cyclo(FLac-NMeA-AlaPyzlTHP4-Nle-Phe2F-Nle-NMeF-amBCP)] (cyclo([NMeA][X77][Nle][Phe(2-F)][Nle][NMeF][X1][PhLac])) is 6.86 nM.
